Measurements published in patent US20070082903A1, “Remedy for rheumatoid arthritis” (priority 2003, published 2007).

Tested on: patients with rheumatoid arthritis
Test: administration to patients with rheumatoid arthritis, ACR criterion evaluation at 16 weeks
Assay type: in vivo, human
Conditions: for improvement rate: SF-36 mental scale / improvement rate: SF-36 physical scale / improvement rate: erythrocyte sedimentation rate / improvement rate: patient's self-assessed physical functions / improvement rate: reduction of swollen joint count / improvement rate: reduction of tender joint count / improvement rate: patient's assessment of pain / improvement rate: patient's global assessment of disease activity / improvement rate: physician's global assessment of disease activity / improvement rate: CRP: 16 weeks vs initial value; for improvement rate: patient's assessment of pain / improvement rate: patient's global assessment of disease activity / improvement rate: physician's global assessment of disease activity: VAS; for improvement rate: CRP: in % (unit assumed)
Text: When 20% or more improvement is observed in the items 1) and 2) and 20% or more improvement is observed in at least three of the five items 3) to 7), the therapeutic effect is rated as “20% improvement on the criterion established by the American College of Rheumatology” (20% improvement on the ACR criterion). • 1) Reduction of tender joint count. • 2) Reduction of swollen joint count. • 3) Patient's global assessment of disease activity. • 4) Physician's global assessment of disease activity. • 5) Patient's assessment of pain. • 6) Patient's self-assessed physical functions. • 7) CRP or erythrocyte sedimentation rate.
Similarly, when 50% or more improvement is observed in the items 1) and 2) and 50% or more improvement is observed in at least three of the five items 3) to 7), the therapeutic effect is rated as “50% improvement on the criterion established by the American College of Rheumatology” (50% improvement on the ACR criterion).
SMP-114 was orally administered once a day after a meal to patients with rheumatoid arthritis who had been treated with 1 to 5 DMARDs other than SMP-114 (to whom these DMARDs seemed to be non-administrable because of their side effects, or for whom these DMARDs seemed to be ineffective or insufficiently effective). As to the dose, a placebo, 40 mg/day, 80 mg/day and 120 mg/day were employed (about 50 cases per group). […] SMP-114 was continuously administered to patients in whom the standard had been reached, until the 24th week while keeping the test blind. Sixteen weeks after the start of the administration, the placebo group, 40 mg/day group, 80 mg/day group and 120 mg/day group were compared with respect to the proportion of patients satisfying the requirement “20% improvement on the criterion established by the American College of Rheumatology”, whereby the efficacy of the SMP-114 was evaluated (in the present example, the following ratings were given on a visual analogue scale (VAS): 3) a patient's global assessment of disease activity, 4) a physician's global assessment of disease activity, and 5) a patient's assessment of pain, on the ACR criterion.).
When the following improvements are observed on the above-mentioned criterion of improvement established by the American College of Rheumatology, it is judged that “50% improvement on the criterion established by the American College of Rheumatology” (50% improvement on the ACR criterion) has been achieved: 50% or more improvement is observed in the items 1) and 2) and 50% or more improvement is observed in at least three of the five items 3) to 7). The efficacy of SMP-114 may be evaluated on the basis of the proportion of patients satisfying the requirement “50% improvement on the criterion established by the American College of Rheumatology”.
The efficacy of SMP-114 may be evaluated on the basis of improvement rates of the above-mentioned rating items on the criterion established by the American College of Rheumatology and QOL measure (SF-36) (Ware, J E. & Sherbourne C D., “The MOS 36-Item Short-Form Health Survey (SF-36); 1. Conceptual 10 Framework and Item Selection.”, Med Care 1981; 18:806). The improvement rates may be expressed as the rates of change calculated on the basis of the difference between values obtained 16 weeks after the start of the administration and initial values obtained before the start of the administration.
Stratification analysis was carried out by employing as an indication the history of treatment with disease modifying antirheumatic drugs (DMARDs) other than SMP-114, i.e., the number of the DMARDs other than SMP-114 which had been used. There are shown below the results of the analysis carried out by dividing patients into patients with rheumatoid arthritis who had been treated with one or two DMARDs other than SMP-114 (group A) and patients with rheumatoid arthritis who had been treated with 3 to 5 DMARDs other than SMP-114 (group B). […]

[1] = 40 mg/day, 16 weeks, erythrocyte sedimentation rate used as item 7)
[2] = 80 mg/day, 16 weeks, erythrocyte sedimentation rate used as item 7)
[3] = 120 mg/day, 16 weeks, erythrocyte sedimentation rate used as item 7)
[4] = total active groups, patient's assessment of pain (VAS) < 67
[5] = total active groups, patient's assessment of pain (VAS) ≧ 67
[6] = total active groups, physician's global assessment (VAS) < 63
[7] = total active groups, physician's global assessment (VAS) ≧ 63

Compound: C[C@@H](c1ccc(-c2ccccc2)c(F)c1)c1cc(/N=C(/N)N2CCOCC2)on1 [SMP-114, 3-[(1S)-1-(2-fluorobiphenyl-4-yl)ethyl]-5-{[amino(morpholin-4-yl)methylene]amino}isoxazole]
- improvement rate: SF-36 mental scale (40 mg/day): 43.7%
- improvement rate: SF-36 physical scale (40 mg/day): 33.3%
- improvement rate: erythrocyte sedimentation rate (40 mg/day): 3.2%
- improvement rate: patient's self-assessed physical functions (40 mg/day): 4.3%
- improvement rate: reduction of swollen joint count (40 mg/day): 22.3%
- improvement rate: reduction of tender joint count (40 mg/day): 16.0%
- improvement rate: patient's assessment of pain (40 mg/day): 17.1%
- improvement rate: patient's global assessment of disease activity (40 mg/day): 19.3%
- improvement rate: physician's global assessment of disease activity (40 mg/day): 12.7%
- improvement rate: CRP (40 mg/day): −12.3
- ACR20 improvement rate (40 mg/day, 16 weeks, CRP used as item 7)): 38.2%
- ACR20 improvement rate [1]: 38.2%
- ACR50 improvement rate [1]: 10.9%
- Number of ACR50 responders (40 mg/day, 55 patients): 6
- Number of ACR20 responders (40 mg/day, 55 patients, CRP used): 21
- Number of ACR20 responders (40 mg/day, 55 patients, erythrocyte sedimentation rate used): 21
- improvement rate: SF-36 mental scale (80 mg/day): 46.1%
- improvement rate: SF-36 physical scale (80 mg/day): 28.8%
- improvement rate: erythrocyte sedimentation rate (80 mg/day): 4.0%
- improvement rate: patient's self-assessed physical functions (80 mg/day): 10.6%
- improvement rate: reduction of swollen joint count (80 mg/day): 18.7%
- improvement rate: reduction of tender joint count (80 mg/day): 27.6%
- improvement rate: patient's assessment of pain (80 mg/day): 16.5%
- improvement rate: patient's global assessment of disease activity (80 mg/day): 20.5%
- improvement rate: physician's global assessment of disease activity (80 mg/day): 21.5%
- improvement rate: CRP (80 mg/day): −26.4
- ACR20 improvement rate (80 mg/day, 16 weeks, CRP used as item 7)): 34.5%
- ACR20 improvement rate [2]: 36.4%
- ACR50 improvement rate [2]: 10.9%
- Number of ACR50 responders (80 mg/day, 55 patients): 6
- Number of ACR20 responders (80 mg/day, 55 patients, CRP used): 19
- Number of ACR20 responders (80 mg/day, 55 patients, erythrocyte sedimentation rate used): 20
- improvement rate: SF-36 mental scale (120 mg/day): 44.8%
- improvement rate: SF-36 physical scale (120 mg/day): 30.2%
- improvement rate: erythrocyte sedimentation rate (120 mg/day): −7.5%
- improvement rate: patient's self-assessed physical functions (120 mg/day): −8.7%
- improvement rate: reduction of swollen joint count (120 mg/day): 19.7%
- improvement rate: reduction of tender joint count (120 mg/day): 22.7%
- improvement rate: patient's assessment of pain (120 mg/day): 17.1%
- improvement rate: patient's global assessment of disease activity (120 mg/day): 14.2%
- improvement rate: physician's global assessment of disease activity (120 mg/day): 24.1%
- improvement rate: CRP (120 mg/day): −98.6
- ACR20 improvement rate (120 mg/day, 16 weeks, CRP used as item 7)): 37.0%
- ACR20 improvement rate [3]: 37.0%
- ACR50 improvement rate [3]: 13.0%
- Number of ACR50 responders (120 mg/day, 54 patients): 7
- Number of ACR20 responders (120 mg/day, 54 patients, CRP used): 20
- Number of ACR20 responders (120 mg/day, 54 patients, erythrocyte sedimentation rate used): 20
- ACR20 improvement rate (total active groups (40, 80, 120 mg/day), Group A, DMARDs treatment history = 1-2 drugs): 44%
- ACR20 improvement rate (total active groups (40, 80, 120 mg/day), Group B, DMARDs treatment history = 3-5 drugs): 32%
- ACR20 responders / cases (total active groups, Group A, DMARDs treatment history = 1-2 drugs): 32/72
- ACR20 responders / cases (total active groups, Group B, DMARDs treatment history = 3-5 drugs): 29/92
- ACR20 improvement rate [4]: 50%
- ACR20 responders / cases [4]: 36/72
- ACR20 improvement rate [5]: 27%
- ACR20 responders / cases [5]: 25/92
- ACR20 improvement rate [6]: 42%
- ACR20 responders / cases [6]: 31/74
- ACR20 improvement rate [7]: 33%
- ACR20 responders / cases [7]: 30/90
